Data on 8 compounds can be found in ChEMBL document CHEMBL1201862, “PubChem BioAssay data set” (2004).

Some test systems named below: SF-268; UACC-62; IGROV-1; NCI-H23; SF-539; MDA-N; HL-60; SN12C; HOP-92; UO-31; DU-145; SK-MEL-2; CCRF-CEM; MDA-MB-435; MCF7; PC-3; SNB-75; MDA-MB-231; NCI-H460; COLO 205.
Assay in all cases: DTP human tumour cell line panel, 48 h

Molecules are shown by their SMILES.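 Growth conditions: 96-well plates. Treatment: test compound, 48 hours, 5 concentrations. Analysis: linear interpolation between bracketing concentrations; unreached endpoints set to highest concentration. GI50 marks 50% less growth.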 Calls of active or inactive are those of the source. Rule as the data show it: active = GI50 up to about 1.1 µM and inactive = higher.

As for `Cn1c2ccccc2c(=NNc2ccc(S(N)(=O)=O)cc2)c2ccccc21`, the GI50 (as a rule, the concentration at which growth is held to half of that of the control) in the assay on SF-268 was 18.1 µM (inactive); with UACC-62, 14.7 µM (inactive); in the assay with IGROV-1, 17.7 µM (inactive); with NCI-H23, 16 µM (inactive); in the assay with SF-539 it was 22.5 µM (inactive); with MDA-N, 15.9 µM (inactive). In addition, the GI50 with HL-60 was 2.7 µM (inactive); with SN12C, 18.4 µM (inactive); in the assay on HOP-92, 8.85 µM (inactive); in the assay with UO-31 it was 10.7 µM (inactive); in the assay on DU-145 it was 21.6 µM (inactive); in the assay with SK-MEL-2, 10.5 µM (inactive). The GI50 with CCRF-CEM is 4.58 µM (inactive); in the assay on MDA-MB-435 it was 16.2 µM (inactive); in the assay on MCF7, 13.6 µM (inactive); in the assay with PC-3, 9.75 µM (inactive); in the assay with SNB-75, 15.1 µM (inactive); in the assay with MDA-MB-231, 9.23 µM (inactive). Further, the GI50 in the assay on NCI-H460 was 9.18 µM (inactive); in the assay with COLO 205, 18.7 µM (inactive).

For the compound `Cc1cccc2c(=O)c3c(O)cc4c(c3n(C)c12)C=CC(C)(C)O4`, the GI50 in the assay with SF-268 is > 100 µM (inactive); with UACC-62, > 100 µM (inactive); with IGROV-1, > 100 µM (inactive); in the assay with NCI-H23, 33 µM (inactive); with SF-539, 87.5 µM (inactive); in the assay on MDA-N it was 35.6 µM (inactive). The GI50 was 45.7 µM (inactive) in the assay with HL-60; > 100 µM (inactive) in the assay with SN12C; 21.6 µM (inactive) in the assay with HOP-92; > 100 µM (inactive) in the assay with DU-145; > 100 µM (inactive) in the assay with SK-MEL-2; 22.5 µM (inactive) in the assay with CCRF-CEM. Also, the GI50 was 70.5 µM (inactive) with MDA-MB-435; 32.7 µM (inactive) in the assay with MCF7; 91.8 µM (inactive) with PC-3; 97.5 µM (inactive) in the assay with SNB-75; > 100 µM (inactive) in the assay with MDA-MB-231; 31.2 µM (inactive) in the assay with NCI-H460. Moreover, the GI50 in the assay on COLO 205 is 29 µM (inactive).

Consider `Cc1ccsc1/C=N/Nc1cc(C)c2ccccc2n1`, for which the GI50 in the assay on SF-268 was 17.6 µM (inactive); with UACC-62, 12.5 µM (inactive); with IGROV-1, 1.36 µM (inactive); in the assay on NCI-H23, 11.2 µM (inactive); with MDA-N, 14.5 µM (inactive); with HL-60 it was 12.2 µM (inactive). The GI50 in the assay on SN12C is 15.2 µM (inactive); in the assay on HOP-92, 13.7 µM (inactive); in the assay on UO-31, 10.4 µM (inactive); in the assay with DU-145, 12.6 µM (inactive); in the assay with SK-MEL-2 it was 17.9 µM (inactive); with CCRF-CEM, 17.1 µM (inactive). Further, the GI50 with MDA-MB-435 was 14 µM (inactive); with MCF7, 15.6 µM (inactive); in the assay with PC-3 it was 14.7 µM (inactive); with SNB-75, 13.8 µM (inactive); in the assay on MDA-MB-231, 0.637 µM (active); in the assay with COLO 205 it was 5.92 µM (inactive).

As for `CCN(C(=O)/C=C/c1ccco1)c1ccccc1`, the GI50 with SF-268 was > 100 µM (inactive); with UACC-62, > 100 µM (inactive); with IGROV-1, > 100 µM (inactive); in the assay with NCI-H23 it was > 100 µM (inactive); in the assay with MDA-N, > 100 µM (inactive); in the assay with HL-60, 21.9 µM (inactive). The GI50 in the assay on SN12C, with HOP-92, in the assay with UO-31, in the assay with DU-145, in the assay with SK-MEL-2 and in the assay on CCRF-CEM was > 100 µM (inactive) each time. Further, the GI50 in the assay on MDA-MB-435, in the assay on MCF7, in the assay on PC-3, with SNB-75, in the assay with MDA-MB-231 and with NCI-H460 was > 100 µM (inactive) each time. Also, the GI50 in the assay on COLO 205 is > 100 µM (inactive).

As for `CN(C)CCCN1c2ccccc2Sc2cnccc21`, the GI50 with SF-268 is > 100 µM (inactive); in the assay on UACC-62, 38.5 µM (inactive); in the assay on IGROV-1, > 100 µM (inactive); with SF-539, 54.6 µM (inactive); in the assay with MDA-N, 64.7 µM (inactive); with HL-60 it was 74 µM (inactive). In addition, the GI50 is 74.1 µM (inactive) in the assay on SN12C; 61 µM (inactive) in the assay with HOP-92; > 100 µM (inactive) in the assay with UO-31; > 100 µM (inactive) in the assay on DU-145; 28.4 µM (inactive) with SK-MEL-2; 93.5 µM (inactive) in the assay on CCRF-CEM. Also, the GI50 is 69.7 µM (inactive) in the assay with MDA-MB-435; 61 µM (inactive) in the assay on MCF7; > 100 µM (inactive) in the assay on PC-3; > 100 µM (inactive) in the assay on SNB-75; 42.1 µM (inactive) in the assay with MDA-MB-231; 32.1 µM (inactive) in the assay with NCI-H460. Besides, in the assay with COLO 205, the GI50 is 47 µM (inactive).

As for `FC(F)(F)c1nc2nc(Cl)c(Cl)nc2n1CCCN1CCOCC1`, the GI50 with SF-268 was 40.4 µM (inactive); in the assay on UACC-62, 50.6 µM (inactive); in the assay on IGROV-1, 26.4 µM (inactive); in the assay on NCI-H23 it was 34.7 µM (inactive); with SF-539, 72.4 µM (inactive); in the assay on MDA-N it was 35.7 µM (inactive). The GI50 in the assay on HL-60 was 19.1 µM (inactive); in the assay with SN12C, 84.9 µM (inactive); in the assay with HOP-92, 32 µM (inactive); with DU-145, 24.9 µM (inactive); in the assay with SK-MEL-2, 37.9 µM (inactive); in the assay with CCRF-CEM, 24.7 µM (inactive). Further, the GI50 with MDA-MB-435 is 44.9 µM (inactive); with MCF7, 53.1 µM (inactive); with PC-3, 61.2 µM (inactive); with SNB-75, 79.3 µM (inactive); in the assay with MDA-MB-231 it was 78.2 µM (inactive); in the assay with NCI-H460, 52 µM (inactive). For the same compound, the GI50 with COLO 205 is 54.6 µM (inactive).

Consider `O=C(O)C(F)(F)C(F)(F)C(F)(F)C(F)(F)C(=O)O`, for which the GI50 with SF-268, in the assay on UACC-62, in the assay with IGROV-1, in the assay on NCI-H23, in the assay on MDA-N and in the assay with HL-60 was > 100 µM (inactive) throughout. Besides, the GI50 in the assay on SN12C, in the assay on HOP-92, in the assay on UO-31, with DU-145, in the assay on SK-MEL-2 and with CCRF-CEM was > 100 µM (inactive) in each case. Besides, the GI50 with MDA-MB-435, in the assay with MCF7, in the assay on PC-3, with SNB-75, with MDA-MB-231 and in the assay on NCI-H460 was > 100 µM (inactive) throughout. The GI50 with COLO 205 was > 100 µM (inactive).

Take `Cc1ccc(S(=O)(=O)OC2CC(C(C)(C)C)CCC2c2ccccc2)cc1` (stereo unspecified): the GI50 was 57.5 µM (inactive) in the assay with UACC-62; 72.8 µM (inactive) with IGROV-1; > 100 µM (inactive) with NCI-H23; > 100 µM (inactive) in the assay on SF-539; 99.8 µM (inactive) in the assay on MDA-N; > 100 µM (inactive) in the assay on HL-60. Moreover, the GI50 is > 100 µM (inactive) in the assay on SN12C; 23.3 µM (inactive) in the assay with HOP-92; > 100 µM (inactive) in the assay with UO-31; > 100 µM (inactive) with DU-145; > 100 µM (inactive) with SK-MEL-2; 66.1 µM (inactive) in the assay with MDA-MB-435. Moreover, the GI50 is 35.1 µM (inactive) with MCF7; 70 µM (inactive) in the assay on PC-3; 27.9 µM (inactive) in the assay with SNB-75; > 100 µM (inactive) in the assay with MDA-MB-231; 78.7 µM (inactive) in the assay with NCI-H460; > 100 µM (inactive) in the assay with COLO 205.
